The test system of data set [1] is gerbils. The data set is described as follows: tapping test in gerbils. Conditions: % inhibition at 0.3 mg/kg scoring. In kind it is in vivo, gerbil. On the procedure: More specifically, gerbils are lightly anesthetized with ether and the skull surface is exposed. […] Following injection, gerbils are placed in 1 L beaker individually and monitored for repetitive hind paw tapping. Some compounds prepared in the following Examples were tested in accordance with these testing methods.

In data set [2] the target is T1, Ca^2+ channel (Rattus norvegicus, UniProt P22002).
T1 construct: from tissue; host or cells: rat heart membrane preparation
Put plainly: verapamil binding study in rat heart membrane preparation. Conditions: 0.25 nM [^3H]desmethoxyverapamil, read-out: verapamil binding study (Ca^2+ channel binding affinity, adverse effect). Here is the method:
The adverse effect on Ca^2+ channel binding affinity is determined by verapamil binding study in rat heart membrane preparation. More specifically, verapamil binding study is performed as previously described by Reynolds et al., (J. Pharmacol. Exp. Ther., 237, 731, (1986)). Briefly, incubations are initiated by the addition of tissue to tubes containing 0.25 nM [^3H]desmethoxyverapamil and various concentrations of compounds (total volume; 1 ml). Nonspecific binding is defined as radioligand binding remaining in the presence of 3-10 μM methoxyverapamil.

Data set [3] deals with T2, substance P receptor sites in IM-9 cells (Homo sapiens, UniProt P25103).
T2 construct: endogenous in cells; host or cells: IM-9 cells (human)
Put plainly: IM-9 binding assay (inhibition of [3H]SP binding). Conditions: human IM-9 cells, 0.56 nM [^3H]SP, 120 min at 4° C. Here is the method:
The activity of the compounds of the present invention, as substance P antagonists, is determined by their ability to inhibit the binding of substance P at its receptor sites in IM-9 cells employing radioactive ligands. The substance P antagonist activity of the herein described compounds is evaluated by using the standard assay procedure described by D. G. Payan et al., as reported in J. Immunolocy, 133, 3260 (1984). This method essentially involves determining the concentration of the individual compound required to reduce by 50% the amount of radiolabeled substance P ligands at their receptor sites in said isolated cow tissues or IM-9 cells, thereby affording characteristic IC50 values for each compound tested. More specifically, inhibition of [^3H]SP binding to human IM-9 cells by compounds are determined in assay buffer (50 mM Tris-HCl (pH 7.4), 1 mM MnCl2, 0.02% bovine serum albumin, bacitracin (40 μg/ml), leupeptin (4 μg/ml), chymostatin (2 μg/ml) and phosphoramidon (30 μg/ml)). The reaction is initiated by the addition of cells to assay buffer containing 0.56 nM [^3H]SP and various concentrations of compounds (total volume; 0.5 ml) and allowed to incubate for 120 min at 4° C. […] Nonspecific binding is defined as the radioactivity remaining in the presence of 1 μM SP. The filters are placed into tubes and counted using liquid scintillation counter.

SMILES strings stand for the structures. Bounds are passed on as bounds.

T1 sequence (P22002 whole entry, other chains not shown): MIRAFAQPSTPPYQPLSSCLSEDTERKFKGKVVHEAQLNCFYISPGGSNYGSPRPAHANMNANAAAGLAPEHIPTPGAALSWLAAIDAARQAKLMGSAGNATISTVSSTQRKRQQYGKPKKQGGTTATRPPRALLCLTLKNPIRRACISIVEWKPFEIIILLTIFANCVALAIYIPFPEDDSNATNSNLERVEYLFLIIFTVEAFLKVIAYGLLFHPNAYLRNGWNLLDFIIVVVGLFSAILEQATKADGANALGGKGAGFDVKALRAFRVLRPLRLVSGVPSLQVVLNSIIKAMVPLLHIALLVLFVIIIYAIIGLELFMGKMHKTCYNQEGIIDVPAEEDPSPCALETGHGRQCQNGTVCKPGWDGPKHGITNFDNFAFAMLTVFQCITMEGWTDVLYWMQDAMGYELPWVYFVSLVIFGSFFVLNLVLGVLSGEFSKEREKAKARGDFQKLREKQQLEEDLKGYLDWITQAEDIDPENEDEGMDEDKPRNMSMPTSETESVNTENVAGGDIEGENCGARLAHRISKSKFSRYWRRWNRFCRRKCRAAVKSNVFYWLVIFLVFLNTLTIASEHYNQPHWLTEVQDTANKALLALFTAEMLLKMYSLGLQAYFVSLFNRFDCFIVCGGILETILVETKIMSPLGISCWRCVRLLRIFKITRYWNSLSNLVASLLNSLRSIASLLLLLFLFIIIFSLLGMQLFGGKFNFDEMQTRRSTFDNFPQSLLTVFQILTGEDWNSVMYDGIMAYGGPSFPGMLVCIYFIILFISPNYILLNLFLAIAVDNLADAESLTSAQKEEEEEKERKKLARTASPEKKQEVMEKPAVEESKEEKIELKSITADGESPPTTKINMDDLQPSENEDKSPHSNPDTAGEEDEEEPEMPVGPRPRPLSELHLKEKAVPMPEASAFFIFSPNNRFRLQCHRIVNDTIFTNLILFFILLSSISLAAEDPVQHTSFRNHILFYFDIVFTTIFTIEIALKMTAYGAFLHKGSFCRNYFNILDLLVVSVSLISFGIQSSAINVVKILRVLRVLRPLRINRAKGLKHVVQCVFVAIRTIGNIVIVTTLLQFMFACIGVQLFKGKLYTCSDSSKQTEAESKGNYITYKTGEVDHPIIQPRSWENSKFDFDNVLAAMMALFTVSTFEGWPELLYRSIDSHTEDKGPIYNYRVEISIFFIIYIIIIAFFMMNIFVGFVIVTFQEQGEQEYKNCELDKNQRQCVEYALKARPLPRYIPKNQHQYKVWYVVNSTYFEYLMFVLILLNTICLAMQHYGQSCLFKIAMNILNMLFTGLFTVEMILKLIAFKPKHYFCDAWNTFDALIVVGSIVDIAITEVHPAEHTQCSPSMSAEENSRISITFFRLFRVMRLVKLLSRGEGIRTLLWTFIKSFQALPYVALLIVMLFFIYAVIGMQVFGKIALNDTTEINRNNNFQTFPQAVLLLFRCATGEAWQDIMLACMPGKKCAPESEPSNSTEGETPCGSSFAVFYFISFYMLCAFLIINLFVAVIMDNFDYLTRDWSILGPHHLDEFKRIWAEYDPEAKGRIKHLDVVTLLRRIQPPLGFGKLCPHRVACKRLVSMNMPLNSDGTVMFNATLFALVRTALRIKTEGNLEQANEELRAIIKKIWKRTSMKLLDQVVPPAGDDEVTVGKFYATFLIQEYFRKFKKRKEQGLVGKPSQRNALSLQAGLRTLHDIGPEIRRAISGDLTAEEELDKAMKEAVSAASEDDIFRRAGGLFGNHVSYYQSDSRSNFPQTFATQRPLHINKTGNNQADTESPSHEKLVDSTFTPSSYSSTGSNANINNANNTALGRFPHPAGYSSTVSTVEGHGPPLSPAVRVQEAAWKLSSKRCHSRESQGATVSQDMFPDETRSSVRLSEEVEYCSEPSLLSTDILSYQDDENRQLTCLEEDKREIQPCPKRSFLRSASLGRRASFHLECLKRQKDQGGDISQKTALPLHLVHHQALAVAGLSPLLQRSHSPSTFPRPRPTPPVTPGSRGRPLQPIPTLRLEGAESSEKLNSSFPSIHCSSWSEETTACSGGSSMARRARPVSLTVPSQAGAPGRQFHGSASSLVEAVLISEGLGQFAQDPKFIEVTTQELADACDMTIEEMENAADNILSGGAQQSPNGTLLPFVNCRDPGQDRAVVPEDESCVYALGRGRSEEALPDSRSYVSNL
T1 sequence (P54290 25-944 partner limits assumed, other chains not shown): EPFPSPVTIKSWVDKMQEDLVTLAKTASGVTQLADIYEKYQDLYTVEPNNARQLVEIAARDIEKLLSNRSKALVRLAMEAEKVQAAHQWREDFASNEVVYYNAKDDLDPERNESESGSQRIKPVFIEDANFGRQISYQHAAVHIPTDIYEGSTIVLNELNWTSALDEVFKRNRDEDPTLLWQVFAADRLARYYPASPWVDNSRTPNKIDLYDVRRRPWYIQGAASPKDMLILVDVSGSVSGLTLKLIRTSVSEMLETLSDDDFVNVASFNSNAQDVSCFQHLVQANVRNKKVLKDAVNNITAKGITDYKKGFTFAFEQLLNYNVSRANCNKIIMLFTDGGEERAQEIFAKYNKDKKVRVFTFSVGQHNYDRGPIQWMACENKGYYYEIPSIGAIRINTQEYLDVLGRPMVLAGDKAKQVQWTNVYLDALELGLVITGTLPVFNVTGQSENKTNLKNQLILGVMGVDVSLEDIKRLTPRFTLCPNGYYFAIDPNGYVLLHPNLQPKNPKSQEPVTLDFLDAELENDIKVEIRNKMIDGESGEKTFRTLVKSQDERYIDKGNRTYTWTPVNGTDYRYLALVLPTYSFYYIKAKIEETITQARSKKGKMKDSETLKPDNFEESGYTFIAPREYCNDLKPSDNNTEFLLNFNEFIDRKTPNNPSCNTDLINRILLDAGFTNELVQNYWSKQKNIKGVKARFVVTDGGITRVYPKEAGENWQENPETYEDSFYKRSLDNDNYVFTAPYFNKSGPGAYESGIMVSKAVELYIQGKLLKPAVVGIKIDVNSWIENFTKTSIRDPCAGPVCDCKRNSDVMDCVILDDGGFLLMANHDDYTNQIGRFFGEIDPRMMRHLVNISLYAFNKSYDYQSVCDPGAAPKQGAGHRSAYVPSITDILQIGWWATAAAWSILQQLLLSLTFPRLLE
T1 sequence (P54290 945-1091 partner limits assumed, other chains not shown): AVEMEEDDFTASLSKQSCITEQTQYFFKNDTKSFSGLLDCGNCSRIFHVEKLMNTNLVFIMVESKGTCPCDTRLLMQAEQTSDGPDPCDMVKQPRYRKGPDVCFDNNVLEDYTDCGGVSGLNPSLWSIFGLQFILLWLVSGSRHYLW
T2 sequence (P25103 whole entry): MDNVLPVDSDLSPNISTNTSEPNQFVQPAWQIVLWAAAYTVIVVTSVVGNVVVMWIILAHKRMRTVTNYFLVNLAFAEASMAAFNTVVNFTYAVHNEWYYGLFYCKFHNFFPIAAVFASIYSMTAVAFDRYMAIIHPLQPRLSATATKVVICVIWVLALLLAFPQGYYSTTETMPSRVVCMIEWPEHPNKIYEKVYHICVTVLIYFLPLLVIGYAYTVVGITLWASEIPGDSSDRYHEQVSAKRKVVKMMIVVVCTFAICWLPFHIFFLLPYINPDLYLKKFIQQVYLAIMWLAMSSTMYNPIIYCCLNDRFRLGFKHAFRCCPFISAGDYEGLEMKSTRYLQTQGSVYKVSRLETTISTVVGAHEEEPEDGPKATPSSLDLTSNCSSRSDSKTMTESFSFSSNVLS

For `COc1cc2c(cc1CN[C@H]1CCCN[C@H]1c1ccccc1)CCC(=S)N2C.Cl.Cl`, the melting point lay in the range of 219 to 221 °C.

With `COc1cc2ccc(=O)n(C)c2cc1CN[C@H]1C2CCN(CC2)[C@H]1C(c1ccccc1)c1ccccc1`, the melting point fell in the range of 125 to 128 °C.

`COc1cc2c(cc1CN[C@H]1CCCN[C@H]1c1ccccc1)N(C)C(=O)CC2.Cl.Cl` [Compound 21, (2S,3S)-3-(6-Methoxy-1-methyl-2-oxo-1,2,3,4-tetrahydroquinolin-7-yl)methylamino-2-phenylpiperidine Dihydrochloride] had a melting point of 265 to 268 °C. Also, the “[Sar^9, Met(O2)^11]substance P-induced tapping test, % inhibition” value in data set [1] came out at 52%. In addition, in data set [2], the IC50 is greater than 300 nM. In data set [3], this compound displayed an IC50 of less than 0.1 nM.

Take `COc1cc2c(cc1CN[C@H]1CCCN[C@H]1c1ccccc1)N(CC(F)(F)F)C(=O)CC2.Cl.Cl`: the melting point is 243 to 245 °C.

On to `COc1cc2c(cc1CN[C@H]1CCCN[C@H]1c1ccccc1)C(C(F)(F)F)CC(=O)N2C.Cl.Cl` (stereo partly drawn), for which the melting point lay within 255 to 256 °C.

Consider `COc1cc2c(cc1CN[C@H]1CCCN[C@H]1c1ccccc1)N(C)C(=S)CC2.Cl.Cl`, for which the melting point was 245 to 246 °C.

On to `COc1cc2c(cc1CN[C@H]1CCCN[C@H]1c1ccccc1)N(C(C)C)C(=O)CC2.Cl.Cl`, for which the melting point was in the range of 257 to 260 °C.

In turn, `COc1cc2c(cc1CN[C@H]1C3CCN(CC3)[C@H]1C(c1ccccc1)c1ccccc1)N(C)C(=O)CC2` displayed a melting point of 136 to 139 °C.

Turning to `COc1cc2c(cc1CN[C@H]1CCCN[C@H]1c1ccccc1)N(C)C(=O)CCC2.Cl.Cl`, the melting point lay within 236 to 238 °C.

Take `COc1cc2ccc(=O)n(C)c2cc1CN[C@H]1CCCN[C@H]1c1ccccc1.Cl.Cl`: the melting point was in the range of 260 to 263 °C.

In turn, `COc1cc2c(cc1CN[C@H]1CCCN[C@H]1c1ccccc1)CCC(=O)N2C.Cl.Cl` displayed a melting point of 243 to 244 °C.

In turn, `COc1cc2c(cc1CN[C@H]1CCCN[C@H]1c1ccccc1)N(C)C(=O)SC2.Cl.Cl` registered a melting point of 252 to 254 °C.

`COc1cc2c(cc1CN[C@H]1CCCN[C@H]1c1ccccc1)C(C)(C)C(=S)N2C.Cl.Cl`: the melting point fell in the range of 234 to 236 °C.

`CN1C(=O)CCc2cc(OC(F)F)c(CN[C@H]3CCCN[C@H]3c3ccccc3)cc21.Cl.Cl` gave a melting point of 238 to 240 °C.

In turn, `COc1cc2c(cc1CN[C@H]1CCCN[C@H]1c1ccccc1)N(C)C(=O)OC2.Cl.Cl` returned a melting point of 235 to 237 °C.

(Values after US20030105124A1, “Substituted benzolactam compounds” (priority 2000, published 2003).)
